According to patent US20260327191A1, “GSK3a INHIBITORS AND METHODS OF USE THEREOF” (Blueprint Medicines Corporation, priority 2023, published 2026):

Key:
GSK3B [1] = biological target: T1, GSK3B (Homo sapiens, UniProt P49841); experiment: NanoBRET cellular target engagement assay, Nanoluc-GSK3B in HEK293 cells; type: cell-based; parameters: expressed in transfected cells; details: NanoBRET GSK3β IC50, HEK293 cells, tracer K-8, 2 hours, 37° C
human GSK3α = biological target: T2, human GSK3α (Homo sapiens, UniProt P49840); experiment: In vitro enzymatic activity assay, GSK3α; type: biochemical; details: 1.0 mM ATP, 1.0 μM peptide substrate, 120 min, 25° C, read-out: Enzyme GSK3α (IC50)
T2 construct: Full length human GSK3α or GSK3B expressed as N-terminal GST fusion proteins; GST (N); purchased Carna Biosciences (Japan); host or cells: baculovirus host

GSK3A = biological target: T3, GSK3A (Homo sapiens, UniProt P49840); experiment: NanoBRET cellular target engagement assay, Nanoluc-GSK3A in HEK293 cells; type: cell-based; details: NanoBRET GSK3α IC50, HEK293 cells, tracer K-8, 2 hours, 37° C
T3 construct: expressed in transfected cells

GSK3B [2] = biological target: T1, GSK3B; experiment: In vitro enzymatic activity assay, GSK3β; type: biochemical; parameters: Full length human GSK3α or GSK3B expressed as N-terminal GST fusion proteins; GST (N); purchased Carna Biosciences (Japan); host or cells: baculovirus host; details: 1.0 mM ATP, 1.0 μM peptide substrate, 120 min, 25° C, read-out: Enzyme GSK3β (IC50)

T2 sequence (P49840 whole entry, the tested form may be a part): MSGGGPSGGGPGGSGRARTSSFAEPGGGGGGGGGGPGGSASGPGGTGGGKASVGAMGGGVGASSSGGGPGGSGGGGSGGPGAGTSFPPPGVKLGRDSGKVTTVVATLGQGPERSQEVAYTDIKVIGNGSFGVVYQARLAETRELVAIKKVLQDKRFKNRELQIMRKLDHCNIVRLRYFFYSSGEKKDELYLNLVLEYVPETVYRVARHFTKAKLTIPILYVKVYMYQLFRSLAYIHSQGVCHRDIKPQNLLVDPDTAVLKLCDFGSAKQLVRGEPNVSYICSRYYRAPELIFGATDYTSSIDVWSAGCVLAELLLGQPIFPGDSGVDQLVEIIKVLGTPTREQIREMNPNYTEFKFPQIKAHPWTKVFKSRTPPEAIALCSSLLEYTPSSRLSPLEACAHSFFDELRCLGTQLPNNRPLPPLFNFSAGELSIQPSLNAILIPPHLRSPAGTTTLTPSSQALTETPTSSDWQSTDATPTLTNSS
T3 sequence (P49840 whole entry): as the sequence (P49840 whole entry, the tested form may be a part) above
T1 sequence (P49841 whole entry): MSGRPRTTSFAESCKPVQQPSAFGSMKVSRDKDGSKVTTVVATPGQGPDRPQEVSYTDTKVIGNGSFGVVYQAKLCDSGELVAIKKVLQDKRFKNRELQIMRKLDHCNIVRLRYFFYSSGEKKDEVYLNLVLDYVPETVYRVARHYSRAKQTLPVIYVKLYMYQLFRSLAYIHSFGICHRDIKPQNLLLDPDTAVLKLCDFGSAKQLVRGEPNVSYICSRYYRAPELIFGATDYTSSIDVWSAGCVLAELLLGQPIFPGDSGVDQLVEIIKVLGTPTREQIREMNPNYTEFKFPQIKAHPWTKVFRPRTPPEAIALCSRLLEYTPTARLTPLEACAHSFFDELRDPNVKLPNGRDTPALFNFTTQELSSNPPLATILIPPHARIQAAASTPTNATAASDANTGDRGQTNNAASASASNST

SMILES | IC50 (GSK3B [1]) [µM] | IC50 (human GSK3α) [µM] | IC50 (GSK3A) [µM] | IC50 (GSK3B [2]) [µM]
CCOc1cc(Cl)c(-n2cnc(N)c(C(=O)Nc3cncc(C(N)COC)c3)c2=O)c(Cl)c1 (single isomer, unassigned) [Example 134, (R)-4-amino-N-(5-(1-amino-2-methoxyethyl)pyridin-3-yl)-1-(2,6-dichloro-4-ethoxyphenyl)-6-oxo-1,6-dihydropyrimidine-5-carboxamide or (S)-4-amino-N-(5-(1-amino-2-methoxyethyl)pyridin-3-yl)-1-(2,6-dichloro-4-ethoxyphenyl)-6-oxo-1,6-dihydropyrimidine-5-carboxamide] | 0.204 | 0.0034 | 0.0032 | 0.212
CCOc1cc(Cl)c(-n2cnc(N)c(C(=O)Nc3cncc(C(N)CC)c3)c2=O)c(Cl)c1 (single isomer, unassigned) [Example 136, (R)-4-amino-N-(5-(1-aminopropyl)pyridin-3-yl)-1-(2,6-dichloro-4-ethoxyphenyl)-6-oxo-1,6-dihydropyrimidine-5-carboxamide or (S)-4-amino-N-(5-(1-aminopropyl)pyridin-3-yl)-1-(2,6-dichloro-4-ethoxyphenyl)-6-oxo-1,6-dihydropyrimidine-5-carboxamide] | 0.118 | 0.0029 | 0.0018 | 0.206
CCOc1cc(Cl)c(-n2cnc(N)c(C(=O)Nc3cncc(C(C)N)c3)c2=O)c(Cl)c1 (single isomer, unassigned) [Example 137, (R)-4-amino-N-(5-(1-aminoethyl)pyridin-3-yl)-1-(2,6-dichloro-4-ethoxyphenyl)-6-oxo-1,6-dihydropyrimidine-5-carboxamide or (S)-4-amino-N-(5-(1-aminoethyl)pyridin-3-yl)-1-(2,6-dichloro-4-ethoxyphenyl)-6-oxo-1,6-dihydropyrimidine-5-carboxamide] | 0.0871 | 0.0019 | 0.0017 | 0.129
CCOCC(N)c1cncc(NC(=O)c2c(N)ncn(-c3c(Cl)cc(OCC)cc3Cl)c2=O)c1 (single isomer, unassigned) [Example 140, (R)-4-amino-N-(5-(1-amino-2-ethoxyethyl)pyridin-3-yl)-1-(2,6-dichloro-4-ethoxyphenyl)-6-oxo-1,6-dihydropyrimidine-5-carboxamide or (S)-4-amino-N-(5-(1-amino-2-ethoxyethyl)pyridin-3-yl)-1-(2,6-dichloro-4-ethoxyphenyl)-6-oxo-1,6-dihydropyrimidine-5-carboxamide] | 0.616 | 0.0242 | 0.0092 | 1.24
CCOc1cc(Cl)c(-n2cnc(N)c(C(=O)Nc3cncc(C(COC)NC)c3)c2=O)c(Cl)c1 (single isomer, unassigned) [Example 141, (R)-4-amino-1-(2,6-dichloro-4-ethoxyphenyl)-N-(5-(2-methoxy-1-(methylamino)ethyl)pyridin-3-yl)-6-oxo-1,6-dihydropyrimidine-5-carboxamide or (S)-4-amino-1-(2,6-dichloro-4-ethoxyphenyl)-N-(5-(2-methoxy-1-(methylamino)ethyl)pyridin-3-yl)-6-oxo-1,6-dihydropyrimidine-5-carboxamide] | 0.318 | 0.0041 | 0.0029 | 0.232
CCOc1cc(Cl)c(-n2cnc(N)c(C(=O)Nc3cncc(C(C)N)c3)c2=O)c(Cl)c1 (single isomer, unassigned) [Example 142, (R)-4-amino-N-(5-(1-aminoethyl)pyridin-3-yl)-1-(2,6-dichloro-4-ethoxyphenyl)-6-oxo-1,6-dihydropyrimidine-5-carboxamide or (S)-4-amino-N-(5-(1-aminoethyl)pyridin-3-yl)-1-(2,6-dichloro-4-ethoxyphenyl)-6-oxo-1,6-dihydropyrimidine-5-carboxamide] | 0.35 | 0.0098 | 0.0047 | 0.421
CCOc1cc(Cl)c(-n2cnc(N)c(C(=O)Nc3cncc(C(N)CC(F)F)c3)c2=O)c(Cl)c1 (single isomer, unassigned) [Example 143, (R)-4-amino-N-(5-(1-amino-3,3-difluoropropyl)pyridin-3-yl)-1-(2,6-dichloro-4-ethoxyphenyl)-6-oxo-1,6-dihydropyrimidine-5-carboxamide or (S)-4-amino-N-(5-(1-amino-3,3-difluoropropyl)pyridin-3-yl)-1-(2,6-dichloro-4-ethoxyphenyl)-6-oxo-1,6-dihydropyrimidine-5-carboxamide] | 0.28 | 0.0049 | 0.0041 | 0.207

Next, values leading:

IC50 (GSK3B [1]) [µM] | IC50 (human GSK3α) [µM] | IC50 (GSK3A) [µM] | IC50 (GSK3B [2]) [µM] | SMILES
0.181 | 0.0055 | 0.002 | 0.228 | CCOCc1cc(C)c(-n2cnc(N)c(C(=O)Nc3cncc(C4CCCCCN4)c3)c2=O)c(C)c1 (single isomer, unassigned) [Example 132, (R)-4-amino-N-(5-(azepan-2-yl)pyridin-3-yl)-1-(4-(ethoxymethyl)-2,6-dimethylphenyl)-6-oxo-1,6-dihydropyrimidine-5-carboxamide or (S)-4-amino-N-(5-(azepan-2-yl)pyridin-3-yl)-1-(4-(ethoxymethyl)-2,6-dimethylphenyl)-6-oxo-1,6-dihydropyrimidine-5-carboxamide]
0.264 | 0.0032 | 0.0045 | 0.184 | CCOc1cc(Cl)c(-n2cnc(N)c(C(=O)Nc3cncc(C4COCCCN4)c3)c2=O)c(Cl)c1 (single isomer, unassigned) [Example 135, (R)-N-(5-(1,4-oxazepan-3-yl)pyridin-3-yl)-4-amino-1-(2,6-dichloro-4-ethoxyphenyl)-6-oxo-1,6-dihydropyrimidine-5-carboxamide or (S)-N-(5-(1,4-oxazepan-3-yl)pyridin-3-yl)-4-amino-1-(2,6-dichloro-4-ethoxyphenyl)-6-oxo-1,6-dihydropyrimidine-5-carboxamide]
0.281 | 0.0109 | 0.0051 | 0.56 | CCOc1cc(Cl)c(-n2cnc(N)c(C(=O)Nc3cncc(C(N)C4CC4)c3)c2=O)c(Cl)c1 (single isomer, unassigned) [Example 139, (R)-4-amino-N-(5-(amino(cyclopropyl)methyl)pyridin-3-yl)-1-(2,6-dichloro-4-ethoxyphenyl)-6-oxo-1,6-dihydropyrimidine-5-carboxamide or (S)-4-amino-N-(5-(amino(cyclopropyl)methyl)pyridin-3-yl)-1-(2,6-dichloro-4-ethoxyphenyl)-6-oxo-1,6-dihydropyrimidine-5-carboxamide]
0.375 | 0.011 | 0.005 | 0.472 | Cc1cc(CC(F)F)cc(C)c1-n1cnc(N)c(C(=O)Nc2cncc(C(C)N)c2)c1=O (single isomer, unassigned) [Example 144, (R)-4-amino-N-(5-(1-aminoethyl)pyridin-3-yl)-1-(4-(2,2-difluoroethyl)-2,6-dimethylphenyl)-6-oxo-1,6-dihydropyrimidine-5-carboxamide or (S)-4-amino-N-(5-(1-aminoethyl)pyridin-3-yl)-1-(4-(2,2-difluoroethyl)-2,6-dimethylphenyl)-6-oxo-1,6-dihydropyrimidine-5-carboxamide]
0.34 | 0.0077 | 0.0037 | 0.355 | Cc1cc(C)c(-n2cnc(N)c(C(=O)Nc3cncc(C4CCCCCN4)c3)c2=O)c(C)c1 (single isomer, unassigned) [Example 146, (R)-4-amino-N-(5-(azepan-2-yl)pyridin-3-yl)-1-mesityl-6-oxo-1,6-dihydropyrimidine-5-carboxamide or (S)-4-amino-N-(5-(azepan-2-yl)pyridin-3-yl)-1-mesityl-6-oxo-1,6-dihydropyrimidine-5-carboxamide]
0.354 | 0.0088 | 0.0038 | 0.392 | Cc1cc(C)c(-n2cnc(N)c(C(=O)Nc3cncc(C(C)N)c3)c2=O)c(C)c1 (single isomer, unassigned) [Example 147, (R)-4-amino-N-(5-(1-aminoethyl)pyridin-3-yl)-1-mesityl-6-oxo-1,6-dihydropyrimidine-5-carboxamide or (S)-4-amino-N-(5-(1-aminoethyl)pyridin-3-yl)-1-mesityl-6-oxo-1,6-dihydropyrimidine-5-carboxamide]
0.349 | 0.0072 | 0.0043 | 0.317 | CCc1cc(C)c(-n2cnc(N)c(C(=O)Nc3cncc(C4CCCCCN4)c3)c2=O)c(C)c1 (single isomer, unassigned) [Example 148, (R)-4-amino-N-(5-(azepan-2-yl)pyridin-3-yl)-1-(4-ethyl-2,6-dimethylphenyl)-6-oxo-1,6-dihydropyrimidine-5-carboxamide or (S)-4-amino-N-(5-(azepan-2-yl)pyridin-3-yl)-1-(4-ethyl-2,6-dimethylphenyl)-6-oxo-1,6-dihydropyrimidine-5-carboxamide]
